# Earlier results, collected in patent US11911514B2, “Extended-release pharmaceutical composition containing lacosamide” (WHAN IN Pharmaceutical Company, priority 2018, dated 2024).
# System: patients with epilepsy
# Details: taking 400 mg
structure (smiles),measurement,value
COC[C@@H](NC(C)=O)C(=O)NCc1ccccc1 [lacosamide],Number of patients with seizures reduced by more than 50%,38-49%
